Reference: US20070128217A1 (priority 2003, published 2007)

Assays:
[1] = test system: recombinant human anti-SARS-CoV antibody 03-018; assay type: binding; design: Binding of antibody 03-018 to linear peptides of the N protein of SARS-CoV Urbani / Binding of antibody 03-018 to looped/cyclic peptides of the N protein of SARS-CoV Urbani: unit not given here
[2] = test system: antibodies in sera from SARS patients (sera 1a, 1b, 2, 6, 37, 62, London, SARS-yellow, SARS-green); assay type: binding, human; design: Binding of serum 6 to linear peptides of protein X1 of SARS-CoV Urbani / Binding of serum 37 to linear peptides of protein X1 of SARS-CoV Urbani / Binding of serum 6 to looped/cyclic peptide (PEPSCAN-ELISA) / Binding of serum 37 to looped/cyclic peptide (PEPSCAN-ELISA) / Binding of serum 37 to looped/cyclic peptides of protein X1 of SARS-CoV Urbani / Binding of serum 6 to linear peptides of protein X2 / Binding of serum 37 to linear peptides of protein X2 / Binding of serum 37 to looped/cyclic peptides of protein X2 of SARS-CoV Urbani / Binding of serum 6 to linear peptides of protein M of SARS-CoV Urbani / Binding of serum 37 to linear peptides of protein M of SARS-CoV Urbani / Binding of serum 6 to looped/cyclic peptides of protein M of SARS-CoV Urbani / Binding of serum 37 to looped/cyclic peptides of protein M of SARS-CoV Urbani / Binding of serum 6 to linear peptides of protein X3 of SARS-CoV Urbani / Binding of serum 37 to linear peptides of protein X3 of SARS-CoV Urbani / Binding of serum 37 to looped/cyclic peptides of protein X3 of SARS-CoV Urbani / Binding of serum 6 to linear peptides of protein X4 of SARS-CoV Urbani / Binding of serum 37 to linear peptides of protein X4 of SARS-CoV Urbani / Binding of serum 37 to looped/cyclic peptides of protein X4 of SARS-CoV Urbani / Binding of serum 6 to linear peptides of protein X5 of SARS-CoV Urbani / Binding of serum 37 to linear peptides of protein X5 of SARS-CoV Urbani / Binding of serum 37 to looped/cyclic peptides of protein X5 of SARS-CoV Urbani / Binding of serum 6 to linear peptides of protein N of SARS-CoV Urbani / Binding of serum 37 to linear peptides of protein N of SARS-CoV Urbani / Binding of serum 6 to linear peptide (PEPSCAN-ELISA) / Binding of serum 1a to looped/cyclic peptides of protein N of SARS-CoV Urbani / Binding of serum 1b to looped/cyclic peptides of protein N of SARS-CoV Urbani / Binding of serum 2 to looped/cyclic peptides of protein N of SARS-CoV Urbani / Binding of serum 6 to looped/cyclic peptides of protein N of SARS-CoV Urbani / Binding of serum 37 to looped/cyclic peptides of protein N of SARS-CoV Urbani / Binding of serum 62 to looped/cyclic peptides of protein N of SARS-CoV Urbani / Binding of serum London to looped/cyclic peptides of protein N of SARS-CoV Urbani / Binding of serum SARS-green to looped/cyclic peptides of protein N of SARS-CoV Urbani: unit not given here
[3] = test system: rabbit serum obtained by immunizing a rabbit with the SARS-CoV strain Frankfurt 1; assay type: binding; design: Binding of a rabbit serum to linear peptides / Binding of a rabbit serum to looped peptides / Rabbit serum linear peptides / Rabbit serum looped peptides / Binding of a rabbit serum to linear peptides of protein N of SARS-CoV Urbani (Rabbit serum linear peptides) / Binding of a rabbit serum to looped/cyclic peptides of protein N of SARS-CoV Urbani (Rabbit serum looped peptides): unit not given here
[4] = test system: control sera (pooled serum of ten healthy LUMC hospital workers; commercial negative donor pooled serum from the Dutch bloodbank); assay type: binding, human; design: Binding of Control serum LUMC to linear peptides / Binding of Control serum Blood-bank to linear peptides / Binding of Control serum LUMC to looped peptides / Binding of Control Serum Blood-Bank to Looped peptides / Binding of Control serum LUMC to linear peptides of the protein M of SARS-CoV Urbani / Binding of Control serum Blood-bank to linear peptides of the protein M of SARS-CoV Urbani / Binding of Control serum LUMC to looped peptides of the protein M of SARS-CoV Urbani / Binding of Control Serum Blood-Bank to Looped peptides of the protein M of SARS-CoV Urbani: unit not given here

| Sequence | Binding of antibody 03-018 to linear peptides of the N protein of SARS-CoV Urbani [1] | Binding of antibody 03-018 to looped/cyclic peptides of the N protein of SARS-CoV Urbani [1] | Binding of serum 1a to linear peptides of protein N of SARS-CoV Urbani [2] | Binding of serum 1a to looped/cyclic peptides of protein N of SARS-CoV Urbani [2] | Binding of serum 1b to linear peptides of protein N of SARS-CoV Urbani [2] | Binding of serum 1b to looped/cyclic peptides of protein N of SARS-CoV Urbani [2] | Binding of serum 2 to linear peptides of protein N of SARS-CoV Urbani [2] | Binding of serum 2 to looped/cyclic peptides of protein N of SARS-CoV Urbani [2] | Binding of serum 6 to linear peptides of protein N of SARS-CoV Urbani [2] | Binding of serum 6 to looped/cyclic peptides of protein N of SARS-CoV Urbani [2] | Binding of serum 37 to linear peptides of protein N of SARS-CoV Urbani [2] | Binding of serum 37 to looped/cyclic peptides of protein N of SARS-CoV Urbani [2] | Binding of serum 62 to linear peptides of protein N of SARS-CoV Urbani [2] | Binding of serum 62 to looped/cyclic peptides of protein N of SARS-CoV Urbani [2] | Binding of serum London to linear peptides of protein N of SARS-CoV Urbani [2] | Binding of serum London to looped/cyclic peptides of protein N of SARS-CoV Urbani [2] | Binding of serum SARS-green to looped/cyclic peptides of protein N of SARS-CoV Urbani [2] | Binding of serum SARS-yellow to looped/cyclic peptides of protein N of SARS-CoV Urbani [2] | Binding of a rabbit serum to linear peptides of protein N of SARS-CoV Urbani (Rabbit serum linear peptides) [3] | Binding of a rabbit serum to looped/cyclic peptides of protein N of SARS-CoV Urbani (Rabbit serum looped peptides) [3] | further results |
| --- | --- | --- | --- | --- | --- | --- | --- | --- | --- | --- | --- | --- | --- | --- | --- | --- | --- | --- | --- | --- | --- |
| ATRRVRGGDGKMKEL | 0.1 | 0.2 | 0.3 | 0.2 | 0.1 | 0.1 | 0.3 | 0.2 | 0.3 | 0.1 | 0.8 | 0.4 | 0.7 | 0.3 | 0.5 | 0.3 | 0.1 | 0.4 | 0.3 | 0.3 | Binding of serum SARS-green to linear peptides of protein N of SARS-CoV Urbani [2]: 0.3; Binding of serum SARS-yellow to linear peptides of protein N of SARS-CoV Urbani [2]: 0.6; Binding of Control Serum Blood-Bank to Looped peptides [4]: 0.5; Binding of Control serum Blood-bank to linear peptides [4]: 0.7; Binding of Control serum LUMC to linear peptides [4]: 0.7; Binding of Control serum LUMC to looped peptides [4]: 0.5 |
| MSDNGPQSNQRSAPR | 0.1 | 0.3 | 0.2 | 0.2 | 0.1 | 0.1 | 0.2 | 0.4 | 0.2 | 0.3 | 0.6 | 0.4 | 0.6 | 0.4 | 0.5 | 0.4 | 0.4 | 0.1 | 0.1 | 0.4 | Binding of serum SARS-green to linear peptides of protein N of SARS-CoV Urbani [2]: 0.3; Binding of serum SARS-yellow to linear peptides of protein N of SARS-CoV Urbani [2]: 0.5; Binding of Control Serum Blood-Bank to Looped peptides [4]: 0.6; Binding of Control serum Blood-bank to linear peptides [4]: 0.6; Binding of Control serum LUMC to linear peptides [4]: 0.5; Binding of Control serum LUMC to looped peptides [4]: 0.5 |
| LLLLDRLNQLESKVS | 0.2 | 0.2 | – | 0.2 | – | 0.1 | – | 0.2 | – | 0.1 | – | 0.4 | – | 0.2 | – | 0.3 | 0.2 | 0.0 | 0.1 | 0.0 | Binding of serum 1a to linear peptide (PEPSCAN-ELISA) [2]: 0.2; Binding of serum 1b to linear peptide (PEPSCAN-ELISA) [2]: 0.1; Binding of serum 2 to linear peptide (PEPSCAN-ELISA) [2]: 0.2; Binding of serum 6 to linear peptide (PEPSCAN-ELISA) [2]: 0.1; Binding of serum 37 to linear peptide (PEPSCAN-ELISA) [2]: 0.7; Binding of serum 62 to linear peptide (PEPSCAN-ELISA) [2]: 0.4; Binding of serum London to linear peptide (PEPSCAN-ELISA) [2]: 0.7; Binding of serum SARS-green to linear peptide (PEPSCAN-ELISA) [2]: 0.4; Binding of serum SARS-yellow to linear peptide (PEPSCAN-ELISA) [2]: 0.4; Binding of Control Serum Blood-Bank to Looped peptides [4]: 0.4; Binding of Control serum Blood-bank to linear peptides [4]: 0.7; Binding of Control serum LUMC to linear peptides [4]: 0.6; Binding of Control serum LUMC to looped peptides [4]: 0.4 |
| DEAQPLPQRQKKQPT | 0.1 | 0.2 | 0.2 | 0.2 | 0.2 | 0.1 | 0.3 | 0.2 | 0.3 | 0.1 | 0.8 | 0.3 | 0.7 | 0.2 | 1.5 | 0.3 | 0.0 | 0.2 | 0.1 | 0.0 | Binding of serum SARS-green to linear peptides of protein N of SARS-CoV Urbani [2]: 0.6; Binding of serum SARS-yellow to linear peptides of protein N of SARS-CoV Urbani [2]: 1.6; Control Serum Blood-Bank Looped peptides [4]: 0.3; Control serum Blood-bank linear peptides [4]: 0.7; Control serum LUMC linear peptides [4]: 0.8; Control serum LUMC looped peptides [4]: 0.3 |
